Results reported in ChEMBL document CHEMBL3232845 (Bioorg Med Chem Lett, 2014).

Experiments:
[1] = Antitumor activity against human LOX cells expressing B-Raf V600E mutant xenografted in nude mouse assessed as tumor growth inhibition at 30 mg/kg qd for 4 days measured on day 5; format: functional; settings: read-out: TGI
[2] = target: NUAK family SNF1-like kinase 1 (Homo sapiens) (UniProt O60285); assay: Inhibition of human ARK5 assessed as enzyme activity at 1 uM relative to control; parameters: scale not given: the % may be the effect or the level left
[3] = target: Proto-oncogene tyrosine-protein kinase Src (Homo sapiens) (UniProt P12931); assay: Inhibition of human Src assessed as enzyme activity at 1 uM relative to control; parameters: scale not given: the % may be the effect or the level left
Chain of Proto-oncogene tyrosine-protein kinase Src (Homo sapiens) (P12931 2-536 limits assumed): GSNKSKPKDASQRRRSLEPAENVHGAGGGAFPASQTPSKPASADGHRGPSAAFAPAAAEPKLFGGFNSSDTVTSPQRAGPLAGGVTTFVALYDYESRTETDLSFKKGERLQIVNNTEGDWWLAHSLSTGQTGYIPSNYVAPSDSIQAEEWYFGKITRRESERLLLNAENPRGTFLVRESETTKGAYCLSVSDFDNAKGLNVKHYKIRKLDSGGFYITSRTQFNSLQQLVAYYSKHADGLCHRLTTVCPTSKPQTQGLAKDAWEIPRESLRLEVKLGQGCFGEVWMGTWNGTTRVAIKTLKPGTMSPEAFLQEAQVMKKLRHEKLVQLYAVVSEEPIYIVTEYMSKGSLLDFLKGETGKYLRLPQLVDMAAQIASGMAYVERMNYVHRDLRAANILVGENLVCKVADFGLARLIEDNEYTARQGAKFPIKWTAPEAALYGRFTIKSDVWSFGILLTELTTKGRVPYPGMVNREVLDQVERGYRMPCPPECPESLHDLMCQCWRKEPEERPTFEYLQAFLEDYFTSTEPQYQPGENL

[4] = target: MAP kinase-interacting serine/threonine-protein kinase 2 (Homo sapiens) (UniProt Q9HBH9); assay: Inhibition of human MKNK2 assessed as enzyme activity at 1 uM relative to control; parameters: scale not given: the % may be the effect or the level left
Chain of MAP kinase-interacting serine/threonine-protein kinase 2 (Homo sapiens) (Q9HBH9 whole entry, looked up): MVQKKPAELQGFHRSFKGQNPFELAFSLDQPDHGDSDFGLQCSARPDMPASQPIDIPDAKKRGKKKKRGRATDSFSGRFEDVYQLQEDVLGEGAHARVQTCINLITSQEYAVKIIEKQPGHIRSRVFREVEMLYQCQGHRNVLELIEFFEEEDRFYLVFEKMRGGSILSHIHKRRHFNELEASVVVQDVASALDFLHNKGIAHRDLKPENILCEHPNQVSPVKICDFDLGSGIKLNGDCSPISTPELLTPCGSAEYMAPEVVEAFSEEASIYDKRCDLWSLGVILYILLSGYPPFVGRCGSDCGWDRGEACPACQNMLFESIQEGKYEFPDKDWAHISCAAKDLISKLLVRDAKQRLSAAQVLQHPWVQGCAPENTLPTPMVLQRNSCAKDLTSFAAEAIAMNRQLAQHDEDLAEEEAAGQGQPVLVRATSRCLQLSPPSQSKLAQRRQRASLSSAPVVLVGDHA

[5] = target: Activated CDC42 kinase 1 (Homo sapiens) (UniProt Q07912); assay: Inhibition of human TNK2 assessed as enzyme activity at 1 uM relative to control; parameters: scale not given: the % may be the effect or the level left
[6] = target: Serine/threonine-protein kinase TAO3 (Homo sapiens) (UniProt Q9H2K8); assay: Inhibition of human TAO3 assessed as enzyme activity at 1 uM relative to control; parameters: scale not given: the % may be the effect or the level left
[7] = target: Serine/threonine-protein kinase Nek3 (Homo sapiens) (UniProt P51956); assay: Inhibition of human NEK3 assessed as enzyme activity at 1 uM relative to control; parameters: scale not given: the % may be the effect or the level left
Chain of Serine/threonine-protein kinase Nek3 (Homo sapiens) (P51956 whole entry): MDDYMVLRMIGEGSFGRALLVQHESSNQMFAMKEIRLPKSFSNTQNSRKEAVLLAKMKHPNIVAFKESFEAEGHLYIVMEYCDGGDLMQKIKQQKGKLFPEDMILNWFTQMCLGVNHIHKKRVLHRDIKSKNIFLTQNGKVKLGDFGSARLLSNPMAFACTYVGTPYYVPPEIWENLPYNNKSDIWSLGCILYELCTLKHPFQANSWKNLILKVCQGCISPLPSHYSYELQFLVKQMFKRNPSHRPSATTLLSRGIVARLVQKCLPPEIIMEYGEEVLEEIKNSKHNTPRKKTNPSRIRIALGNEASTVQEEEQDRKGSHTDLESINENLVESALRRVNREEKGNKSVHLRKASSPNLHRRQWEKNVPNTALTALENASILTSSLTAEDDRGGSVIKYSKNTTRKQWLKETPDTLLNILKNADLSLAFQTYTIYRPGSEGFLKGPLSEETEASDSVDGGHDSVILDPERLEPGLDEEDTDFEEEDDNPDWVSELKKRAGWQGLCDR

[8] = target: Proto-oncogene tyrosine-protein kinase ROS (Homo sapiens) (UniProt P08922); assay: Inhibition of human Ros assessed as enzyme activity at 1 uM relative to control; parameters: scale not given: the % may be the effect or the level left
[9] = target: Tyrosine-protein kinase FRK (Homo sapiens) (UniProt P42685); assay: Inhibition of human PTK5 assessed as enzyme activity at 1 uM relative to control; parameters: scale not given: the % may be the effect or the level left
[10] = target: SRSF protein kinase 2 (Homo sapiens) (UniProt P78362); assay: Inhibition of human SRPK2 assessed as enzyme activity at 1 uM relative to control; parameters: scale not given: the % may be the effect or the level left
[11] = target: Tyrosine-protein kinase Fgr (Homo sapiens) (UniProt P09769); assay: Inhibition of human Fgr assessed as enzyme activity at 1 uM relative to control; parameters: scale not given: the % may be the effect or the level left
[12] = AUC in mouse at 30 mg/kg, po; format: ADME, organism-based; parameters: dose 30 mg/kg, route oral; settings: plasma
[13] = target: Serine/threonine-protein kinase Sgk1 (Homo sapiens) (UniProt O00141); assay: Inhibition of human SGK1 assessed as enzyme activity at 1 uM relative to control; parameters: scale not given: the % may be the effect or the level left
[14] = target: MAP kinase-activated protein kinase 3 (Homo sapiens) (UniProt Q16644); assay: Inhibition of human MAPKAP-K3 assessed as enzyme activity at 1 uM relative to control; parameters: scale not given: the % may be the effect or the level left
Chain of MAP kinase-activated protein kinase 3 (Homo sapiens) (Q16644 whole entry, looked up): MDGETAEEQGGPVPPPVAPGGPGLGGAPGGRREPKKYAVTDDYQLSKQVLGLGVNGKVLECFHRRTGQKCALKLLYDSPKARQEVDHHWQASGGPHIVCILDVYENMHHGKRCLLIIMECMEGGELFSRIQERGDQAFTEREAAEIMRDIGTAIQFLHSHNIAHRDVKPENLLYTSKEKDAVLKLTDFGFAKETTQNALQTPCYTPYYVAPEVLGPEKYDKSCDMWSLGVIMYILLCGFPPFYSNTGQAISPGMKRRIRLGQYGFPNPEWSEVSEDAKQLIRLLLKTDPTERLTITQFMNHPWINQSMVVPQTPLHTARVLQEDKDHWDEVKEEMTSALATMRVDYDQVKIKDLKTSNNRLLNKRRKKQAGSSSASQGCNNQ

[15] = target: Calcium/calmodulin-dependent protein kinase type IV (Homo sapiens) (UniProt Q16566); assay: Inhibition of human CAMK4 assessed as enzyme activity at 1 uM relative to control; parameters: scale not given: the % may be the effect or the level left
[16] = target: Serine/threonine-protein kinase B-raf (Homo sapiens) (UniProt P15056); assay: Inhibition of B-Raf (unknown origin) at 1 uM
[17] = target: Tyrosine-protein kinase CSK (Homo sapiens) (UniProt P41240); assay: Inhibition of human CSK assessed as enzyme activity at 1 uM relative to control; parameters: scale not given: the % may be the effect or the level left
[18] = target: Calcium/calmodulin-dependent protein kinase type II subunit delta (Homo sapiens) (UniProt Q13557); assay: Inhibition of human CAMK2d assessed as enzyme activity at 1 uM relative to control; parameters: scale not given: the % may be the effect or the level left
[19] = target: Death-associated protein kinase 3 (Homo sapiens) (UniProt O43293); assay: Inhibition of human DAPK3 assessed as enzyme activity at 1 uM relative to control; parameters: scale not given: the % may be the effect or the level left
[20] = target: Serine/threonine-protein kinase ULK2 (Homo sapiens) (UniProt Q8IYT8); assay: Inhibition of human ULK2 assessed as enzyme activity at 1 uM relative to control; parameters: scale not given: the % may be the effect or the level left
[21] = target: MAP kinase-activated protein kinase 5 (Homo sapiens) (UniProt Q8IW41); assay: Inhibition of human MAPKAP-K5 assessed as enzyme activity at 1 uM relative to control; parameters: scale not given: the % may be the effect or the level left
Chain of MAP kinase-activated protein kinase 5 (Homo sapiens) (Q8IW41 whole entry): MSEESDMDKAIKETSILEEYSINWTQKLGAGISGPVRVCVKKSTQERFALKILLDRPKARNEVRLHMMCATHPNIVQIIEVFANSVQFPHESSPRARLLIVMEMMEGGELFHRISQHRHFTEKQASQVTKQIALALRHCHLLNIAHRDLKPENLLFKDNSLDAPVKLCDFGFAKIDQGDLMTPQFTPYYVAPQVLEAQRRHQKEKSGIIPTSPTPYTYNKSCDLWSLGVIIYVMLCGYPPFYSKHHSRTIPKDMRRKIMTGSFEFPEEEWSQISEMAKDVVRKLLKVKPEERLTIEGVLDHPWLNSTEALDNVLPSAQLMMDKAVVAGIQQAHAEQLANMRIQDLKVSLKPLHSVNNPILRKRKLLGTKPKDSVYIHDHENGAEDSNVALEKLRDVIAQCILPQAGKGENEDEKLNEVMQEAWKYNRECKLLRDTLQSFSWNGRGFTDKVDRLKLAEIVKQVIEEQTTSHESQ

[22] = target: Protein-tyrosine kinase 6 (Homo sapiens) (UniProt Q13882); assay: Inhibition of human PTK6 assessed as enzyme activity at 1 uM relative to control; parameters: scale not given: the % may be the effect or the level left
Chain of Protein-tyrosine kinase 6 (Homo sapiens) (Q13882 whole entry, looked up): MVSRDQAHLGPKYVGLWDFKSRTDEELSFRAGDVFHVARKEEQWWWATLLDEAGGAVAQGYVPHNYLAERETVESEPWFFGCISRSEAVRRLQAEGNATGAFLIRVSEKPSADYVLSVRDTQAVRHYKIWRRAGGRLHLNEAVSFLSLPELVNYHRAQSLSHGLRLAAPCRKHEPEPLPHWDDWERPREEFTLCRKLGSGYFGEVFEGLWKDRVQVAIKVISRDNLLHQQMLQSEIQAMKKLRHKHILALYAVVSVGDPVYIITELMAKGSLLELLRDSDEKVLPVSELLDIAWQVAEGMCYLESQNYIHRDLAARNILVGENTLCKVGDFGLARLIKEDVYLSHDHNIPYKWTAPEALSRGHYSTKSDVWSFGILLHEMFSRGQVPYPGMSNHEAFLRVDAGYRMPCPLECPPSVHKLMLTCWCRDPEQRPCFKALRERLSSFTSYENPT

[23] = target: SRSF protein kinase 3 (Homo sapiens) (UniProt Q9UPE1); assay: Inhibition of human MSSK1 assessed as enzyme activity at 1 uM relative to control; parameters: scale not given: the % may be the effect or the level left
[24] = target: RAC-gamma serine/threonine-protein kinase (Homo sapiens) (UniProt Q9Y243); assay: Inhibition of human AKT3 assessed as enzyme activity at 1 uM relative to control; parameters: scale not given: the % may be the effect or the level left
[25] = target: Aurora kinase A (Homo sapiens) (UniProt O14965); assay: Inhibition of human AURKA assessed as enzyme activity at 1 uM relative to control; parameters: scale not given: the % may be the effect or the level left
Chain of Aurora kinase A (Homo sapiens) (O14965 whole entry): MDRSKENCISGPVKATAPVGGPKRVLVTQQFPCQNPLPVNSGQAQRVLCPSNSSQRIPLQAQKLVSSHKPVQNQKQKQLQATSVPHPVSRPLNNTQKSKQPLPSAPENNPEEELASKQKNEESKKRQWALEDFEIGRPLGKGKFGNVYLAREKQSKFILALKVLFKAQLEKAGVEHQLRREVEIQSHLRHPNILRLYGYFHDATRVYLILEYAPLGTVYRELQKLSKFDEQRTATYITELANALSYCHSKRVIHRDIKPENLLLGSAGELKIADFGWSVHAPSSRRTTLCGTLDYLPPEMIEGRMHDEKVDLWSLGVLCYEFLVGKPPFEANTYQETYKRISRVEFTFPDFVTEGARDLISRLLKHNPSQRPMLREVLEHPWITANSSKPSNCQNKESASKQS

[26] = target: Myosin light chain kinase, smooth muscle (Homo sapiens) (UniProt Q15746); assay: Inhibition of human MYLK assessed as enzyme activity at 1 uM relative to control; parameters: scale not given: the % may be the effect or the level left
[27] = target: Dual specificity protein kinase CLK2 (Homo sapiens) (UniProt P49760); assay: Inhibition of human CLK2 assessed as enzyme activity at 1 uM relative to control; parameters: scale not given: the % may be the effect or the level left
[28] = target: Protein kinase C theta type (Homo sapiens) (UniProt Q04759); assay: Inhibition of human PKCtheta assessed as enzyme activity at 1 uM relative to control; parameters: scale not given: the % may be the effect or the level left
[29] = target: Serine/threonine-protein kinase WNK3 (Homo sapiens) (UniProt Q9BYP7); assay: Inhibition of human WNK3 assessed as enzyme activity at 1 uM relative to control; parameters: scale not given: the % may be the effect or the level left
[30] = target: Fibroblast growth factor receptor 3 (Homo sapiens) (UniProt P22607); assay: Inhibition of human FGFR3 assessed as enzyme activity at 1 uM relative to control; parameters: scale not given: the % may be the effect or the level left
[31] = target: Ephrin type-A receptor 1 (Homo sapiens) (UniProt P21709); assay: Inhibition of human EphA1 assessed as enzyme activity at 1 uM relative to control; parameters: scale not given: the % may be the effect or the level left
Chain of Ephrin type-A receptor 1 (Homo sapiens) (P21709 whole entry): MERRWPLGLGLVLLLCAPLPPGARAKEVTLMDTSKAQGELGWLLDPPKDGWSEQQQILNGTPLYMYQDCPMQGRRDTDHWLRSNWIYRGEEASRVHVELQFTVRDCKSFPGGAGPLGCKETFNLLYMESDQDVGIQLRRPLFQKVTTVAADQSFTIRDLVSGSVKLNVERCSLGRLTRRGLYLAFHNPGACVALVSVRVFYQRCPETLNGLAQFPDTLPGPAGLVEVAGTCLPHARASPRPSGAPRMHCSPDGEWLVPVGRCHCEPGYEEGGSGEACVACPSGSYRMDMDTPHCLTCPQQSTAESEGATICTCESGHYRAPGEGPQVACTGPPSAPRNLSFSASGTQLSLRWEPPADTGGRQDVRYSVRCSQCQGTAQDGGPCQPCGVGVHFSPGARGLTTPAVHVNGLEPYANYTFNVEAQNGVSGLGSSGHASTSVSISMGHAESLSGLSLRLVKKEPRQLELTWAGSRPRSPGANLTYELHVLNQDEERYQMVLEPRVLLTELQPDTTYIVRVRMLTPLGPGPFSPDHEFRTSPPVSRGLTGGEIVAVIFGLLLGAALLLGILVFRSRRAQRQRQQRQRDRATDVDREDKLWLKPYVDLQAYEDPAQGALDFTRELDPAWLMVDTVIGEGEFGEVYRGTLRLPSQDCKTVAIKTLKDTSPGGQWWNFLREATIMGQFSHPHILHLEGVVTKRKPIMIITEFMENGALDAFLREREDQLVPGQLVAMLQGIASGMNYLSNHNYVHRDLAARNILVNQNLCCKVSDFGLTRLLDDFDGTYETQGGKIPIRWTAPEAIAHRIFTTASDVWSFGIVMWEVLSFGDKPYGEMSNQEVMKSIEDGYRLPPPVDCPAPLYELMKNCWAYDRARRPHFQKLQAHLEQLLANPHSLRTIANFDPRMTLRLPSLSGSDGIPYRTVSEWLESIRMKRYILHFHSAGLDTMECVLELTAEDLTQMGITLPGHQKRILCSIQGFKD

[32] = target: Serine/threonine-protein kinase Nek11 (Homo sapiens) (UniProt Q8NG66); assay: Inhibition of human NEK11 assessed as enzyme activity at 1 uM relative to control; parameters: scale not given: the % may be the effect or the level left
[33] = target: Mast/stem cell growth factor receptor Kit (Homo sapiens) (UniProt P10721); assay: Inhibition of human KIT assessed as enzyme activity at 1 uM relative to control; parameters: scale not given: the % may be the effect or the level left
[34] = target: Mitogen-activated protein kinase 9 (Homo sapiens) (UniProt P45984); assay: Inhibition of human JNK2alpha2 assessed as enzyme activity at 1 uM relative to control; parameters: scale not given: the % may be the effect or the level left
Chain of Mitogen-activated protein kinase 9 (Homo sapiens) (P45984 whole entry, looked up, the tested form may be a part): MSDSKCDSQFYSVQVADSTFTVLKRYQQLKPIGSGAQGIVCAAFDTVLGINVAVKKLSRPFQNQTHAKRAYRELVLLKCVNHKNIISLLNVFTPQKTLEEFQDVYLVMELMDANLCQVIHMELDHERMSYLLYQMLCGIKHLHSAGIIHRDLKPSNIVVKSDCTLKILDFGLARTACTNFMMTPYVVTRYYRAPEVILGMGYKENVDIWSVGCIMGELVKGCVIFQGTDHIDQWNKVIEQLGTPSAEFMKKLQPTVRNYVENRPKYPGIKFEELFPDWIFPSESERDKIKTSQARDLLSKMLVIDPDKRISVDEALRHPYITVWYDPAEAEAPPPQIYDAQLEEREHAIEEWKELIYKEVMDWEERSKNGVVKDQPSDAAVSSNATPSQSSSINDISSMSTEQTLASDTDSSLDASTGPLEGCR

[35] = target: Discoidin domain-containing receptor 2 (Homo sapiens) (UniProt Q16832); assay: Inhibition of human DDR2 assessed as enzyme activity at 1 uM relative to control; parameters: scale not given: the % may be the effect or the level left
[36] = target: RAC-beta serine/threonine-protein kinase (Homo sapiens) (UniProt P31751); assay: Inhibition of human AKT2 assessed as enzyme activity at 1 uM relative to control; parameters: scale not given: the % may be the effect or the level left
[37] = target: Serine/threonine-protein kinase 33 (Homo sapiens) (UniProt Q9BYT3); assay: Inhibition of human STK33 assessed as enzyme activity at 1 uM relative to control; parameters: scale not given: the % may be the effect or the level left
[38] = target: Serine/threonine-protein kinase pim-2 (Homo sapiens) (UniProt Q9P1W9); assay: Inhibition of human Pim-2 assessed as enzyme activity at 1 uM relative to control; parameters: scale not given: the % may be the effect or the level left
Chain of Serine/threonine-protein kinase pim-2 (Homo sapiens) (Q9P1W9 whole entry, looked up): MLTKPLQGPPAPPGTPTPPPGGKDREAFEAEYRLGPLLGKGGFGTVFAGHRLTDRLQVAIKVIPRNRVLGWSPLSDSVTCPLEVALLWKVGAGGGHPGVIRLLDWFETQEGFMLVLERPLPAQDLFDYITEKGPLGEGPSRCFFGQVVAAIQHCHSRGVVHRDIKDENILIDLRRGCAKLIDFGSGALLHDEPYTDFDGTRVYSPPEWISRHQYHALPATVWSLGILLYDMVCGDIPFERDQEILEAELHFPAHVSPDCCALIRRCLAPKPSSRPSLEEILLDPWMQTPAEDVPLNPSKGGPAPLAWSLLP

[39] = target: Serine/threonine-protein kinase SIK1 (Homo sapiens) (UniProt P57059); assay: Inhibition of human SIK assessed as enzyme activity at 1 uM relative to control; parameters: scale not given: the % may be the effect or the level left

Activity [2]: 109%
Activity [3]: 83.5%
Activity [4]: 106%
Activity [5]: 104%
Activity [6]: 100%
Activity [7]: 112%
Activity [8]: 108%
Activity [9]: 83.5%
Activity [10]: 96.5%
Activity [11]: 105%
AUC [12]: 483 µM·h
Activity [13]: 121%
Activity [14]: 121%
Activity [15]: 98%
inhibition [16]: < 60%
Activity [17]: 111%
Activity [18]: 94.5%
Activity [20]: 99.5%
Activity [21]: 104%
Activity [22]: 57.5%
Activity [23]: 115%
Activity [24]: 109%
Activity [25]: 97.5%
Activity [26]: 106%
Activity [27]: 110%
Activity [28]: 97.5%
Activity [29]: 107%
Activity [30]: 112%
Activity [31]: 101%
Activity [32]: 93.5%
Activity [33]: 94.5%
Activity [34]: 106%
Activity [35]: 100%
Activity [36]: 154%
Activity [37]: 91%
Activity [38]: 108%
Activity [39]: 143%
Structure (SMILES): CCCS(=O)(=O)Nc1cccc(Nc2ccc3ncn(C)c(=O)c3c2)c1C#N
inhibition in vivo at 30 mg/kg [1]: 95%
Activity [19]: 110%
